We go through ten compounds from patent US5382586A, “Aryl (or heteroaryl)piperazinylalkylazole derivatives, their preparation and their application as medicaments” (priority 1991, dated 1995).

Assay [1] relates to familiarisation process in mice. The assay is described as follows: light box/dark box test: familiarisation process (improvement of cognition). It is filed as in vivo, mouse. From the text: The influence of this product on the familiarisation process of mice in the light box/dark box test described by J. M. Barnes et al., (Pharmacol. Biochem. Behav., 1990, 35, 955-962) is studied. On the one hand, the effect on learning (the speed of familiarisation) and on the other hand the capacity for blocking contrary effects produced by escopolamine are studied.
The mouse is placed in the light zone of a box divided into two compartments, one brightly illuminated, the light box, and the other with little illumination, the dark box.
1) The number of times the mouse stands up on the hind paws in each compartment during a 5 minute period is counted (see Column 1 of the table below).
2) The activity in each compartment is given by counting the number of crossings through the squares which form the divisions of each compartment (see Column 2 of the table below).
3) The time passed in the dark box during the 5 minute counting period is determined (see Column 3 of the table below).
4) The initial latent period is determined, that is to say the time which elapses after the animal is placed in the light box, at the start of the test, before it enters the dark box (see Column 4 of the table below).
Two treatments with the vehicle are administered to the control animals per day. Two doses of 0.00001 ng/kg p.o. of compound 42 are administered per day to the animals treated with this product. The same operation is repeated daily for 5 days.
The animals learn to remain in the dark box for a longer period and to go into the box more rapidly.
On day six escopolamine (2×0.25 mg/kg, i.p.) is administered.
They recover the learned habit on day seven.

Assay [2] relates to immobility of mice. Description: desperate behaviour test (antidepressant activity). It is filed as in vivo, mouse. The conditions noted are these: 30 mg/kg, i.p.; p < 0.05; control 118 s. How it is done:
The desperate behaviour test in mice, described by R. D. Porsolt et al. (Arch. Int. Pharmacodyn. 1977, 229, 327-336), is used.
The animals are placed for 6 minutes in a cylinder containing water, from which they are not able to escape. The period of immobility between minutes 2 and 5 is determined for groups of 10 mice per dosage tested.
The product studied is administered i.p. 1 hour before the test. In this test the immobility of the animals is explained as being produced by their depressed state resulting from being faced with an adverse and insoluble situation in a hostile environment such as water.
In our test imipramine (30 mg/kg; i.p.) was used as reference product.

For assay [3], the system named is norepinephrine-induced death in rats. The assay is described as follows: norepinephrine antagonism test in rats (antihypertensive activity). It counts as in vivo, rat (male Wister). The following applies: for Activity % (norepinephrine antagonistic antihypertensive activity): D = 40 mg/kg, i.p., rat, norepinephrine 1.25 mg/kg i.v. after 2 hours; for ED50: Rattus norvegicus, ip, 2 h, read-out: ED50 (norepinephrine antagonistic antihypertensive activity). The protocol:
This activity is manifested by the protection of animals before death induced by an intravenous injection of norepinephrine, which produces a hypertensive attack in rats.
Male Wister rats weighing 200 grammes are used in this test. The product to be studied is administered intraperitoneally and 1.25 mg/kg (i.v.) of norepinephrine are administered after 2 hours.
The initial administration dose in these studies is 40 mg/kg (i.p.).

Assay [4] has as its system conditioned avoidance response in male Wistar rats. Description: conditioned avoidance response test (inhibition of the conditioned avoidance response; anxiolytic/tranquillising activity). It counts as in vivo, rat (male Wistar). The conditions noted are these: rat; for Activity % (inhibition of the conditioned avoidance response): D = 80 mg/kg, p.o., 45 min before test; for ED50: po, 0.75 h. The protocol: Male Wistar rats weighing 200 grammes which have been trained to jump over a barrier in an avoidance and escape cage (shuttle box) (Letica, reference LI 910 and LI 2700) within 30 seconds of their being introduced into the cage are used in this test.
The products having an anxiolytic or tranquillising activity suppress the conditioned avoidance response.
Training: day one: 11 trials at 3 minute intervals. Electric shock to the paws after 30 seconds (5 mA, 0.1 s, 10 s).
Days two and three: 2 trials per day, with the selected rats only [sum of the scores for the first day (with the exception of the first trial)>14].
Test day: groups formed by selected rats. Oral administration of the product or the vehicle 45 minutes before the start of the study.

[5] abbreviates: day 6, after 2 treatments with escopolamine (0.25 mg/kg, i.p.), Example 42 at 0.00001 ng/kg p.o. twice per day.

In the case of `NC(=O)CN1CCCC1=O` [Piracetam, reference compound], in assay [1] (mice), the cognition-improving activity result is on record as “no activity”.
Turning to `CN1C2CC(OC(=O)C(CO)c3ccccc3)CC1C1OC12` (centres unmarked) [escopolamine, reference compound], the “effect on the learned behaviour (control group)” value in assay [1] (2×0.25 mg/kg, i.p., day six) is given as “the animals of the control group "forget" the learned behaviour”. Besides, in assay [1] (setting [5]), the “Activity within 5 min. period, dark (D)” value stood at 30; the “Activity within 5 min. period, light (L)” value was 67; the “Latent period L-D” value came to 21; the “No. of times standing erect within 5 min period, dark (D)” value is 38. Further, in assay [1] (setting [5]), the “No. of times standing erect within 5 min period, light (L)” value is recorded as 59 and the “Time in the box, dark (D)” value is reported as 27.
Compound `CN(C)CCCN1c2ccccc2CCc2ccccc21` [Imipramine, reference compound] yielded a Period of immobility in assay [2] of 71 s.
Regarding `c1cnc(N2CCN(CCCCn3cnc4ccccc43)CC2)nc1` [Example 16, 1-{4-[4-(2-pyrimidinyl)-1-piperazinyl]-butyl}-1H-benzimidazole], the “Activity % (norepinephrine antagonistic antihypertensive activity)” value in assay [3] was determined as 0%. Also, in assay [4], the “Activity % (inhibition of the conditioned avoidance response)” value is recorded as 100% and it took a dose of 6.1 mg/kg to reach the 50% effect level (ED50).
In the case of `Cc1nc(Cl)c(Cl)n1CCCCN1CCN(c2ncccn2)CC1` [Example 11, 4,5-dichloro-2-methyl-1-{4-[4-(2-pyrimidinyl)-1-piperazinyl]-butyl}-1H-imidazole], the “Activity % (norepinephrine antagonistic antihypertensive activity)” value in assay [3] is on record as 0%. For the same compound, in assay [4], the “Activity % (inhibition of the conditioned avoidance response)” value worked out at 82%.
Take `c1ccc(-c2nc(-c3ccccc3)n(CCCCN3CCN(c4ncccn4)CC3)c2-c2ccccc2)cc1` [Example 9]: the “Activity % (norepinephrine antagonistic antihypertensive activity)” value in assay [3] was 0%. The “Activity % (inhibition of the conditioned avoidance response)” value in assay [4] stood at 8%.
Consider `Cc1nc2ccccc2n1CCCCN1CCN(c2ncccn2)CC1` [Example 25], for which the “Activity % (norepinephrine antagonistic antihypertensive activity)” value in assay [3] amounted to 25%. In assay [4], the “Activity % (inhibition of the conditioned avoidance response)” value turned out to be 52% and the 50% effect level (ED50) was put at a dose of 61.7 mg/kg.
For the compound `Cc1nc(Cl)c(Cl)n1CCCCN1CCN(c2ccccc2Cl)CC1` [Example 38], in assay [3], the “Activity % (norepinephrine antagonistic antihypertensive activity)” value was 100% and the median effective dose (ED50) – broadly, the midpoint of the dose-response relation – worked out at 1.3 mg/kg. Besides, in assay [4], the “Activity % (inhibition of the conditioned avoidance response)” value amounted to 78%.
Consider `Clc1ccc2c(c1)ncn2CCCCN1CCN(c2ncccn2)CC1` [Example 21], for which, in assay [3], the “Activity % (norepinephrine antagonistic antihypertensive activity)” value amounted to 0%. In assay [4], the “Activity % (inhibition of the conditioned avoidance response)” value was determined as 100% and the ED50 stood at 9.3 mg/kg.
Take `Cc1nc(Cl)c(Cl)n1CCCCN1CCN(c2ccccc2)CC1` [Example 36]: in assay [3], the “Activity % (norepinephrine antagonistic antihypertensive activity)” value is 100% and the ED50 was determined as 7.6 mg/kg. Besides, in assay [4], the “Activity % (inhibition of the conditioned avoidance response)” value was found to be 76% and the ED50 was 42 mg/kg.
